In US20130190310A1, “MIG6 AND THERAPEUTIC EFFICACY” (THE JOHNS HOPKINS UNIVERSITY, priority 2010, published 2013):
“Also recorded” adds a separate entry of the source.

How the values were obtained:
Mig6 [1] = test: Immunoblot analysis of Mig6 expression in SCC-R cells; type: cell-based, human; details: for expression of Mig6: AKI or U0126 10 or 20 μM, LY294002 10 or 25 μM, rapamycin 1 or 2 μM
From the text: Antibodies against EGFR, phospho-tyrosine (P-Tyr-100), phospho-EGFR (Tyr1068), phospho-HER2/ErbB2 (Tyr1248), AKT, phospho-AKT (Ser473), p44/42 MAPK, (Erk1/2), phospho-p44/42 MAPK (Erk1/2) (Thr202/Tyr204), and PTEN were obtained from Cell Signaling Technology, Inc. (Beverly, Mass.). Monoclonal anti-P-Actin antibody was obtained from Sigma (St. Louis, Mo.). Polyclonal anti-Mig6 antibody was a generous gift from Dr. Ferby (15). […] Equal amounts of protein were mixed with Laemmli sample buffer, run on 4-12% NuPAGE gels and transferred to nitrocellulose membrane (Bio-Rad Laboratories, Hercules, Calif.). The membrane was probed with primary antibody followed by HRP-conjugated appropriate secondary antibodies (Santa Cruz Biotech, Santa Cruz, Calif.), and detected by enhanced chemiluminescence (ECL, GE Health Care, Piscataway, N.J.).

EGFR [2] = test: Immunoblot/densitometric analysis of phospho-EGFR/total EGFR in SCC-R cells; type: cell-based, human; details: inhibitor 24 hrs (25 μM LY294002, 20 μM AKI, 2 μM rapamycin, 20 μM U0126), then 10 ng/ml EGF 30 min
Protocol: (§1) Antibodies against EGFR, phospho-tyrosine (P-Tyr-100), phospho-EGFR (Tyr1068), phospho-HER2/ErbB2 (Tyr1248), AKT, phospho-AKT (Ser473), p44/42 MAPK, (Erk1/2), phospho-p44/42 MAPK (Erk1/2) (Thr202/Tyr204), and PTEN were obtained from Cell Signaling Technology, Inc. (Beverly, Mass.). Monoclonal anti-P-Actin antibody was obtained from Sigma (St. Louis, Mo.). Polyclonal anti-Mig6 antibody was a generous gift from Dr. Ferby (15). When appropriate, cells were cultured in serum free medium overnight, pretreated with the indicated inhibitors for 3 hrs or […], and the treated with 10 ng/ml EGF for 10 or 30 min. Equal amounts of protein were mixed with Laemmli sample buffer, run on 4-12% NuPAGE gels and transferred to nitrocellulose membrane (Bio-Rad Laboratories, Hercules, Calif.). The membrane was probed with primary antibody followed by HRP-conjugated appropriate secondary antibodies (Santa Cruz Biotech, Santa Cruz, Calif.), and detected by enhanced chemiluminescence (ECL, GE Health Care, Piscataway, N.J.).

Mig6 [3] = test: Immunoblot analysis of Mig6 expression in 358 cells; type: cell-based, human; details: 24 hrs
Protocol: as §1

BML-5 = test: Erlotinib treatment of directly xenografted lung tumors; type: in vivo, nude mice; details: BML-5 compared with BML-1, BML-7, BML-11
Protocol: (§3) The xenografts were generated and erlotinib treatment was performed as published previously (17, 18). Relative tumor growth inhibition (TGI) was calculated as the relative tumor growth of treated mice divided by relative tumor growth of control mice (T/C). The animals were maintained in accordance to guidelines of the American Association of Laboratory Animal Care and the research protocol was approved by the Johns Hopkins University Animal Use and Care Committee.

PANC410 = test: Erlotinib treatment of directly xenografted pancreatic tumors; type: in vivo, nude mice
Protocol: as §3

PANC140 = test: as above; type: in vivo, nude mice
Protocol: as §3

PANC215 = test: as above; type: in vivo, nude mice
Protocol: The xenografts were generated and erlotinib treatment was performed as published previously (17, 18). Relative tumor growth inhibition (TGI) was calculated as the relative tumor growth of treated mice divided by relative tumor growth of control mice (T/C).

Mig6 [4] = test: Immunoblot analysis of Mig6 expression in 358/TGFβ1-day 21 and 358/TGFβ3-day 21 cells; type: cell-based, human; details: 24 hrs
Protocol: as §1

[5] = 150 mg per day; cited from earlier work
EGFR [6] = test: Immunoblot of EGF-induced EGFR phosphorylation in bladder and lung cancer cell lines; type: cell-based, human; details: all bladder and lung cancer cell lines tested; 0.1 μM erlotinib 3 hrs before 10 ng/ml EGF
Protocol: as §1, with “Equal amounts of protein were mixed with Laemmli sample buffer, run on 4-12% NuPAGE gels and transferred to nitrocellulose membrane (Bio-Rad Laboratories, Hercules, Calif.).” left out

PANC420 = test: Erlotinib treatment of directly xenografted pancreatic tumors; type: in vivo, nude mice
Protocol: as §3

serum proteins = details: cited from earlier work
SCC-S and SCC-R cells = test: Cell viability and drug sensitivity assay (Calcein AM), erlotinib-sensitive vs -resistant isogenic cells; type: cell-based, human; details: erlotinib 72 hrs, cell viability
Protocol: Drug resistant cell lines were generated via a process of slowly escalating exposure to erlotinib, as reported previously (16). SCC-S is used to designate the parental UM-SCCI cells exposed to DMSO, and SCC-R refers to the erlotinib resistant clone.
(§2) Cells were plated at a density of 3000/well in 96-well plates. The following day, cells were treated with 0, 0.01, 0.033, 0.1, 0.33, 1, or 3.3 μM erlotinib for an additional 72 hrs. Cell viability was subsequently assayed using Calcein AM (Invitrogen), Fluorescence signals generated as a result of Calcein AM cleavage by viable cells were read by a Molecular Devices plate reader (Sunnyvale, Calif.) using an excitation frequency of 480 nm, and an emission frequency of 535 nm.

H358 cells = test: Cell viability of parental and TGF β-induced H358 cells; type: cell-based, human; details: TGF-β-induced mesenchymal-like cells vs parental
Protocol: as §2

PANC294 = test: Erlotinib treatment of directly xenografted pancreatic tumors; type: in vivo, nude mice
Protocol: as §3

[7] = test system: tumors in control Errfil+/+ mice; details: cited from earlier work
tumors in Errfil−/− mice = details: cited from earlier work
NSCLC = details: patients randomized to gefinitib or placebo; cited from earlier work

**Q.** Which results are given for O=c1[nH]c2ccccc2n1C1CCN(Cc2ccc(-c3nc4cc5[nH]cnc5cc4nc3-c3ccccc3)cc2)CC1 [AKI]?
**A.** expression of Mig6 (Mig6 [1]; 24 hrs): decreased; ratio of phospho-EGFR to EGFR (EGFR [2]): increased

**Q.** Which results are given for N#CC(=C(/N)Sc1ccccc1N)/C(C#N)=C(\N)Sc1ccccc1N [U0126]?
**A.** expression of Mig6 (Mig6 [1]; 24 hrs): decreased; ratio of phospho-EGFR to EGFR (EGFR [2]): increased; expression of Mig6 (Mig6 [3]): reduced

**Q.** Which results are given for C#Cc1cccc(Nc2ncnc3cc(OCCOC)c(OCCOC)cc23)c1 [erlotinib]?
**A.** response of lung xenograft to erlotinib (tumor growth) (BML-5): sensitive; also recorded: better response; erlotinib responsiveness of xenografted pancreatic tumor (PANC410): erlotinib-sensitive; basal Mig6 expression (Mig6 [1]; 0.2 or 1 μM erlotinib, 24 hrs): only a slight decrease; EGF-induced Mig6 upregulation (Mig6 [1]; erlotinib pretreatment 30 min then 10 ng/ml EGF 24 hrs): completely abolish; erlotinib responsiveness of xenografted pancreatic tumor (PANC140): erlotinib-resistant; erlotinib responsiveness of xenografted pancreatic tumor (PANC215): erlotinib-resistant; expression of Mig6 (Mig6 [4]): failed to suppress; steady-state serum concentration, median [5]: 2.9 µM; ligand-induced EGFR phosphorylation (EGFR [6]): effectively block; erlotinib responsiveness of xenografted pancreatic tumor (PANC420): erlotinib-resistant; expression of Mig6 (Mig6 [3]): reduced; bound to serum proteins (serum proteins): 90%; IC50 of SCC-R cells relative to SCC-S cells (SCC-S and SCC-R cells): > 10 times; resistance to erlotinib, cell viability (H358 cells): acquired increasing resistance; erlotinib responsiveness of xenografted pancreatic tumor (PANC294): erlotinib-resistant

**Q.** With COc1cc2ncnc(Nc3ccc(F)c(Cl)c3)c2cc1OCCCN1CCOCC1 [gefitinib] as the compound, how does the “tumor response to gefitinib” value [7] read?
**A.** Its value is “did not respond”.

**Q.** And the “sensitivity of carcinogen-induced tumors to gefitinib” value (tumors in Errfil−/− mice; Errfil−/− mice)?
**A.** The value was “unusually sensitive”.

**Q.** And the tumor regression (tumors in Errfil−/− mice; in 1 week following initiation of gefitinib treatment)?
**A.** The tumor regression was “more than 50%”.

**Q.** What about the “overall difference of PFS vs placebo” value (NSCLC) of the same compound?
**A.** Its value is 7 days.
